{"source": "patent US20230277570A1", "about": "“ENPP1 Inhibitors and Their Use for the Treatment of Cancer” (The Board of Trustees of the Leland Stanford Junior …, priority 2017, published 2023)"}
{"target": "T1, purified recombinant mouse ENPP1 (Mus musculus (Mouse), UniProt P06802)", "T1 sequence (P06802 whole entry)": "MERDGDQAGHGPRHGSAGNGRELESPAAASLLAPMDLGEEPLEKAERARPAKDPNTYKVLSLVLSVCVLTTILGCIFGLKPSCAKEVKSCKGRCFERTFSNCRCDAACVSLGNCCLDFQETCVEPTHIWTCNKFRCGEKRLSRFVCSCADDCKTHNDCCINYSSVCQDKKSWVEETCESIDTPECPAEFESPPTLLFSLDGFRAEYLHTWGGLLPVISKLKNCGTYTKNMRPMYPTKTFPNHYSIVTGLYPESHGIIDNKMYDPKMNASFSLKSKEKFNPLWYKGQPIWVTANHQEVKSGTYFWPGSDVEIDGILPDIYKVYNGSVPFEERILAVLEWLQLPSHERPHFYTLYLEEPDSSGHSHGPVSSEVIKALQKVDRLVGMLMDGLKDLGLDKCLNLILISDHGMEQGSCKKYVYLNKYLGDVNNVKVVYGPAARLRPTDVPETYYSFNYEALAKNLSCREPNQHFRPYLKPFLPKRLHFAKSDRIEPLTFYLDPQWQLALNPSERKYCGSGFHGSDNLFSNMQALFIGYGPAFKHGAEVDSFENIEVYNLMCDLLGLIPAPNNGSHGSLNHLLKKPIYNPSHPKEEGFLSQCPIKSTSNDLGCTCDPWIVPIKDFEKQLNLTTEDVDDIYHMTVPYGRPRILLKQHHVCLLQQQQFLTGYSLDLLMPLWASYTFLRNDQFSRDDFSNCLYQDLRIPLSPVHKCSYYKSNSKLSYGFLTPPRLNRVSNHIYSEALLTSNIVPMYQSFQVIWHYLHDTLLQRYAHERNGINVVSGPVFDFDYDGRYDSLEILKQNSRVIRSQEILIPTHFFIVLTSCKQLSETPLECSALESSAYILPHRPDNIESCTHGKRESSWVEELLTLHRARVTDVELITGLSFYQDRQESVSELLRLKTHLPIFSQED", "experiment": "ENPP1 activity assay using thymidine monophosphate paranitrophenol (TMP-pNP) as a substrate", "type": "biochemical", "conditions": "TMP-pNP 2 μM, mouse ENPP1 0.5 nM, pH 7.5", "description": "Selected compounds of Table 1, Table 2 and other derivatives were prepared and assessed in an ENPP1 activity assay using thymidine monophosphate paranitrophenol (TMP-pNP) as a substrate. Enzyme reactions were prepared with TMP-pNP (2 μM), 5-fold dilutions of ENPP1 inhibitor, and purified recombinant mouse ENPP1 (0.5 nM) in 100 mM Tris, 150 mM NaCl, 2 mM CaCl2, 200 μM ZnCl2, pH 7.5 at room temperature. Reaction progress was monitored by measuring absorbance at 400 nm of paranitrophenolate produced by the reaction for 20 minutes.", "units": {"IC50": "µM"}}
{"smiles": "O=P(O)(O)CCC1CCN(c2ncnc3cccc(F)c23)CC1", "note": "[Compound 70]", "IC50": "< 0.5"}
{"smiles": "O=P(O)(O)CCC1CCN(c2ncnc3cc(O)ccc23)CC1", "note": "[Compound 5]", "IC50": "< 0.5"}
{"smiles": "CC(C)Oc1ccc2c(N3CCC(CCP(=O)(O)O)CC3)ncnc2c1", "note": "[Compound 11]", "IC50": "> 10"}
{"smiles": "COc1cc2ncnc(N3CCC(CCP(O)(O)=S)CC3)c2cc1OC", "note": "[Compound 83, (2-(1-(6,7-dimethoxyquinazolin-4-yl)piperidin-4-yl)ethyl)phosphonothioic O,O-acid]", "IC50": "< 0.5"}
{"smiles": "O=P(O)(O)CCC1CCN(c2ncnc3ccccc23)CC1", "note": "[Compound 25]", "IC50": "< 0.5"}
{"smiles": "COc1cc2ncnc(N3CCC(COP(=O)(O)O)CC3)c2cc1OC", "note": "[Compound 60]", "IC50": "< 0.5"}
{"smiles": "COc1cccc2c(N3CCC(CCP(=O)(O)O)CC3)ncnc12", "note": "[Compound 76]", "IC50": "< 0.5"}
{"smiles": "COc1cc2ncnc(N3CCC(CCB(O)O)CC3)c2cc1OC", "note": "[Compound 87]", "IC50": "< 0.5"}
{"smiles": "O=P(O)(O)CCC1CCN(c2ncnc3ccc(O)cc23)CC1", "note": "[Compound 23]", "IC50": "0.5 to 5"}
{"smiles": "COc1cc2ncnc([C@H]3CC[C@H](CCP(=O)(O)O)CC3)c2cc1OC", "note": "[Compound 82, (2-((1,4-trans)-4-(6,7-dimethoxyquinazolin-4-yl)cyclohexyl)ethyl)phosphonic acid]", "IC50": "< 0.5"}
{"smiles": "COc1ccc2c(N3CCC(CCP(=O)(O)O)CC3)nc(/C=C/c3cccnc3)nc2c1", "note": "[Compound 18]", "IC50": "< 0.5"}
{"smiles": "COc1ccc2c(N3CCC(CCP(=O)(O)O)CC3)ncnc2c1OC", "note": "[Compound 22]", "IC50": "< 0.5"}
{"smiles": "Cc1nccn1-c1cc(N2CCC(CCP(=O)(O)O)CC2)ncn1", "note": "[Compound 93]", "IC50": "< 0.5"}
{"smiles": "COc1cc2ncnc(N3CCC(CC(=O)NO)CC3)c2cc1OC", "note": "[Compound 61]", "IC50": "0.5 to 5"}
{"smiles": "COc1cc2ncnc(N3CCC(CP(=O)(O)O)CC3)c2cc1OC", "note": "[Compound 88, ((1-(6,7-dimethoxyquinazolin-4-yl)piperidin-4-yl)methyl)phosphonic acid]", "IC50": "< 0.5"}
{"smiles": "O=P(O)(O)CCC1CCN(c2ncnc3cc4c(cc23)OCCO4)CC1", "note": "[Compound 13]", "IC50": "0.5 to 5"}
{"smiles": "COc1cc2ncnc([C@H]3CC[C@@H](CCP(=O)(O)O)CC3)c2cc1OC", "note": "[Compound 81, (2-((1,4-cis)-4-(6,7-dimethoxyquinazolin-4-yl)cyclohexyl)ethyl)phosphonic acid]", "IC50": "< 0.5"}
{"smiles": "O=P(O)(O)CCC1CCN(c2ncnc3cc(Cl)ccc23)CC1", "note": "[Compound 84]", "IC50": "< 0.5"}
{"smiles": "COc1ccc2c(N3CCC(CCP(=O)(O)O)CC3)ncnc2c1", "note": "[Compound 10]", "IC50": "< 0.5"}
{"smiles": "COc1ccc2ncnc(N3CCC(CCP(=O)(O)O)CC3)c2c1", "note": "[Compound 19]", "IC50": "< 0.5"}
{"smiles": "Cc1nccn1-c1cc(N2CCN(CCP(=O)(O)O)CC2)ncn1", "note": "[Compound 100]", "IC50": "< 0.5"}
{"smiles": "COc1ccc(OC)c2c(N3CCC(CCP(=O)(O)O)CC3)ncnc12", "note": "[Compound 16]", "IC50": "0.5 to 5"}
{"smiles": "COc1cc(OC)c2ncnc(N3CCC(CCP(=O)(O)O)CC3)c2c1", "note": "[Compound 7]", "IC50": "< 0.5"}
{"smiles": "COc1cc2ccnc(N3CCC(CCP(=O)(O)O)CC3)c2cc1OC", "note": "[Compound 38]", "IC50": "< 0.5"}
{"smiles": "COc1cc2nccc(N3CCC(CCP(=O)(O)O)CC3)c2cc1OC", "note": "[Compound 71]", "IC50": "< 0.5"}
{"smiles": "COc1cc2ncnc(N3CCC(COP(O)(O)=S)CC3)c2cc1OC", "note": "[Compound 67]", "IC50": "< 0.5"}
{"smiles": "COc1ccc2c(N3CCN(CCP(=O)(O)O)CC3)ncnc2c1", "note": "[Compound 42]", "IC50": "> 10"}
{"smiles": "Nc1ccc2c(N3CCC(CCP(=O)(O)O)CC3)ncnc2c1", "note": "[Compound 30]", "IC50": "< 0.5"}
{"smiles": "COc1cccc2c(N3CCC(COP(=O)(O)O)CC3)ncnc12", "note": "[Compound 86]", "IC50": "< 0.5"}
{"smiles": "CNC(=O)NCC1CCN(c2ncnc3cc(OC)c(OC)cc23)CC1", "note": "[Compound 73]", "IC50": "> 10"}
{"smiles": "COc1cc2ncnc(N3CCN(C(=O)CP(=O)(O)O)CC3)c2cc1OC", "note": "[Compound 75]", "IC50": "< 0.5"}
{"smiles": "COc1ccc2c(N3CCC(CCP(=O)(O)O)CC3)nc(C)nc2c1", "note": "[Compound 12]", "IC50": "< 0.5"}
{"target": "T1, purified recombinant mouse ENPP1", "experiment": "ENPP1 enzyme activity assay using 32P cGAMP as a substrate (TLC)", "type": "biochemical", "conditions": "32P-cGAMP 5 μM, mouse ENPP1 20 nM, pH 7.5, 5 hours", "units": {"IC50": "µM"}}
{"smiles": "COc1cccc2c(N3CCC(CCP(=O)(O)O)CC3)ncnc12", "note": "[Compound 76]", "IC50": "< 0.5"}
{"smiles": "COc1ccc2c(N3CCC(CCP(=O)(O)O)CC3)nc(/C=C/c3cccnc3)nc2c1", "note": "[Compound 18]", "IC50": "< 0.5"}
{"smiles": "COc1ccc2c(N3CCC(CCP(=O)(O)O)CC3)ncnc2c1", "note": "[Compound 10]", "IC50": "< 0.5"}
{"smiles": "COc1cc2ncnc(N3CCN(C(=O)CP(=O)(O)O)CC3)c2cc1OC", "note": "[Compound 75]", "IC50": "0.5 to 5"}
{"test_system": "4T1-luciferase tumor", "experiment": "4T1 tumor model: tumor volume and survival with IR, cGAMP, anti-CTLA-4", "type": "in vivo, Balb/c mice", "conditions": "20 Gy IR, then single agent intratumorally on day 2, 4 and 7 (100 μL of 100 μM compound 1 or 10 μg cGAMP)"}
{"smiles": "Nc1nc2c(ncn2[C@@H]2O[C@@H]3COP(=O)(O)O[C@H]4[C@@H](O)[C@H](n5cnc6c(N)ncnc65)O[C@@H]4COP(=O)(O)O[C@@H]2[C@@H]3O)c(=O)[nH]1", "note": "[cGAMP, cyclic guanosine monophosphate-adenosine monophosphate]", "tumor shrinkage effect over IR treatment": "no effect over IR treatment"}
